According to patent publication US8563714B2, “Bridged spiro [2.4] heptane derivatives as ALX receptor and/or FPRL2 agonists” (Actelion Pharmaceuticals Ltd., priority 2009, dated 2013):

Assays:
human ALX receptor = target: T1, human ALX receptor (Homo sapiens, UniProt P25090); assay: Intracellular calcium measurements (FLIPR), agonistic activity in HEK293-hALXR-Gα16 cells; type: cell-based; conditions: Fluo-4 calcium FLIPR, normalized to WKYMVm 10 nM
T1 construct: expressed in transfected cells; host or cells: HEK293 (HEK293-hALXR-Gα16)
T1 sequence (P25090 1-351): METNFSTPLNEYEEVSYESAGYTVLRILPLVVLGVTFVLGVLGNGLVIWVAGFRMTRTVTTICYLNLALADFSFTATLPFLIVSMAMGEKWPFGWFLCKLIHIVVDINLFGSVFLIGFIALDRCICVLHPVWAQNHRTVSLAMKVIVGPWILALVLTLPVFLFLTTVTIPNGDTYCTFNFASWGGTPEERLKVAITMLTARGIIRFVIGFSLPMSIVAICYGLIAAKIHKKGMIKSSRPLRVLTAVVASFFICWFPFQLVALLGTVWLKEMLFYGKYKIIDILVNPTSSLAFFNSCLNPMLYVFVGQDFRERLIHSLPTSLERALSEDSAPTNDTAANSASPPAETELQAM
Outline: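 Agonist-induced calcium flux was recorded by FLIPR (488/540 nm) in HEK293-hALXR-Gα16 cells pre-loaded with Fluo-4 AM (1 μM, 60 min, 37°C). Peak signal above baseline, after subtracting buffer addition, was expressed relative to WKYMVm at 10 nM final.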

human FPRL2 = target: T2, human FPRL2 (Homo sapiens, UniProt P25089); assay: Intracellular calcium measurements (FLIPR), agonistic activity in HEK293-hFPRL2-Gα16 cells; type: cell-based; conditions: Fluo-4 calcium FLIPR, normalized to GLY14-Humanin 100 nM
T2 construct: expressed in transfected cells; host or cells: HEK293 (HEK293-hFPRL2-Gα16)
T2 sequence (P25089 1-353): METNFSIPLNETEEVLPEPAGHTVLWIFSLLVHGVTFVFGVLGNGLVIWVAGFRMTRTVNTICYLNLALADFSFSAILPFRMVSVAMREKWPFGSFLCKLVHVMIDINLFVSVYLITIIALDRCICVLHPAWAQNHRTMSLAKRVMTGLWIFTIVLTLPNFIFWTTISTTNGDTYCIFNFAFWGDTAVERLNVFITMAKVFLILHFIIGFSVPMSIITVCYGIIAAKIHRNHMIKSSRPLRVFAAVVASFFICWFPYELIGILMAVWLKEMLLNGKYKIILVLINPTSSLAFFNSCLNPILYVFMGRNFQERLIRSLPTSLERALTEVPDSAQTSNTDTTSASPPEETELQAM
Outline: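 Peak values after baseline subtraction are expressed relative to 100 nM Gly14-Humanin; compounds diluted in assay buffer from 10 mM DMSO stocks.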

EC50 (human ALX receptor)	EC50 (human FPRL2)	Structure (SMILES)
2.4 nM	3730 nM	O=C(NCCN1CCNC1=O)[C@H]1[C@H](C(=O)Nc2ccc(Br)cc2)[C@@H]2CC[C@H]1C21CC1 (racemic) [Example 105, (5R*)—N^5-(4-Bromophenyl)-(6R*)—N^6-[(2-imidazolidin-2-on-1-yl)-ethyl]-(4S*,7R*)-[4,7-ethylene-spiro[2.4]heptane]-5,6-dicarboxamide]
82 nM	2930 nM	O=C(NC1CC1)[C@H]1[C@H](C(=O)Nc2ccc(Br)cc2)[C@@H]2CC[C@H]1C21CC1 (racemic) [Example 106, (5R*)—N^5-(4-Bromophenyl)-(6R*)—N^6-(cyclopropyl)-(4S*,7R*)-[4,7-ethylene-spiro[2.4]heptane]-5,6-dicarboxamide]
1.8 nM	2270 nM	O=C(NCCCO)[C@H]1[C@H](C(=O)Nc2ccc(Br)cc2)[C@@H]2CC[C@H]1C21CC1 (racemic) [Example 107, (5R*)—N^5-(4-Bromophenyl)-(6R*)—N^6-(3-hydroxy-propyl)-(4S*,7R*)-[4,7-ethylene-spiro[2.4]heptane]-5,6-dicarboxamide]
4.1 nM	1480 nM	O=C(NCCCn1ccnc1)[C@H]1[C@H](C(=O)Nc2ccc(Br)cc2)[C@@H]2CC[C@H]1C21CC1 (racemic) [Example 108, (5R*)—N^5-(4-Bromophenyl)-(6R*)—N^6-(3-(1H-imidazol-1-yl)-propyl)-(4S*,7R*)-[4,7-ethylene-spiro[2.4]heptane]-5,6-dicarboxamide]
0.7 nM	666 nM	CN(C)CCCCCNC(=O)[C@H]1[C@H](C(=O)Nc2ccc(Br)cc2)[C@@H]2CC[C@H]1C21CC1 (racemic) [Example 109, (5R*)—N^5-(4-Bromophenyl)-(6R*)—N^6-(5-(dimethyl-amino)-pentyl)-(4S*,7R*)-[4,7-ethylene-spiro[2.4]heptane]-5,6-dicarboxamide]
16 nM	307 nM	O=C(NCCCN1CCCC1)[C@H]1[C@H](C(=O)Nc2ccc(Br)cc2)[C@@H]2CC[C@H]1C21CC1 (racemic) [Example 110, (5R*)—N^5-(4-Bromophenyl)-(6R*)—N^6-(3-pyrrolidin-1-yl-propyl)-(4S*,7R*)-[4,7-ethylene-spiro[2.4]heptane]-5,6-dicarboxamide]
1.3 nM	71 nM	CN1CCN(CCCNC(=O)[C@H]2[C@H](C(=O)Nc3ccc(Br)cc3)[C@@H]3CC[C@H]2C32CC2)CC1 (racemic) [Example 111, (5R*)—N^5-(4-Bromophenyl)-(6R*)—N^6-(3-(4-methyl-piperazin-1-yl)-propyl)-(4S*,7R*)-[4,7-ethylene-spiro[2.4]heptane]-5,6-dicarboxamide]
1.4 nM	532 nM	O=C(NCCCCN1CCCC1)C1C(C(=O)Nc2ccc(Br)nc2)C2C=CC1C21CC1 (racemic) [Example 114, (5R*)—N^5-(2-Bromopyridin-5-yl)-(6R*)—N^6-(4-pyrrolidin-1-yl-butyl)-(4S*,7R*)-[4,7-ethenylene-spiro[2.4]heptane]-5,6-dicarboxamide]
2 nM	204 nM	COc1ccc(NC(=O)C2C(C(=O)NCCCCN3CCCC3)C3C=CC2C32CC2)cc1 (racemic) [Example 115, (5R*)—N^5-(4-Methoxyphenyl)-(6R*)—N^6-(4-pyrrolidin-1-yl-butyl)-(4S*,7R*)-[4,7-ethenylene-spiro[2.4]heptane]-5,6-dicarboxamide]
7.8 nM	891 nM	O=C(NCCCCN1CCCC1)C1C(C(=O)Nc2ccc(Cl)nc2)C2C=CC1C21CC1 (racemic) [Example 116, (5R*)—N^5-(2-Chloro-pyridin-5-yl)-(6R*)—N^6-(4-pyrrolidin-1-yl-butyl)-(4S*,7R*)-[4,7-ethenylene-spiro[2.4]heptane]-5,6-dicarboxamide]
